Test results published in PubChem BioAssay (NCI).
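Assay format: 96-well plates, 48-hour exposure. GI50 is the concentration that inhibits growth by half. TGI: concentration producing complete growth inhibition.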

Tests used:
Test in all cases: inhibition of tumour cell growth, NCI panel, 48 h
A498 renal = test system: A498 renal
SR leukemia = test system: SR leukemia
EKVX NSCLC = test system: EKVX NSCLC
LOX IMVI melanoma = test system: LOX IMVI melanoma
HL-60(TB) leukemia = test system: HL-60(TB) leukemia
RXF 393 renal = test system: RXF 393 renal
RPMI-8226 leukemia = test system: RPMI-8226 leukemia
A549 NSCLC = test system: A549 NSCLC
UACC-257 melanoma = test system: UACC-257 melanoma
ACHN renal = test system: ACHN renal
MCF7 breast = test system: MCF7 breast
NCI-H23 lung = test system: NCI-H23 lung
KM12 colon = test system: KM12 colon
HCC-2998 colon = test system: HCC-2998 colon
SF-539 CNS = test system: SF-539 CNS
K-562 leukemia = test system: K-562 leukemia
MDA-MB-231 breast = test system: MDA-MB-231 breast
HOP-62 NSCLC = test system: HOP-62 NSCLC
U251 CNS = test system: U251 CNS
SNB-75 CNS = test system: SNB-75 CNS
786-0 renal = test system: 786-0 renal
CCRF-CEM leukemia = test system: CCRF-CEM leukemia
DU-145 prostate = test system: DU-145 prostate
OVCAR-3 ovarian = test system: OVCAR-3 ovarian
PC-3 prostate = test system: PC-3 prostate
OVCAR-8 ovarian = test system: OVCAR-8 ovarian
HS 578T breast = test system: HS 578T breast
SF-268 CNS = test system: SF-268 CNS
NCI-H460 lung = test system: NCI-H460 lung
HCT-116 colon = test system: HCT-116 colon
HCT-15 colon = test system: HCT-15 colon
BT-549 breast = test system: BT-549 breast
OVCAR-4 ovarian = test system: OVCAR-4 ovarian
HOP-92 NSCLC = test system: HOP-92 NSCLC
COLO 205 colon = test system: COLO 205 colon
SK-MEL-5 melanoma = test system: SK-MEL-5 melanoma
SW-620 colon = test system: SW-620 colon
MDA-MB-435 = test system: MDA-MB-435
M14 melanoma = test system: M14 melanoma
SK-MEL-28 melanoma = test system: SK-MEL-28 melanoma
TK-10 renal = test system: TK-10 renal
UACC-62 melanoma = test system: UACC-62 melanoma
NCI-H226 lung = test system: NCI-H226 lung
OVCAR-5 ovarian = test system: OVCAR-5 ovarian
IGROV1 ovarian = test system: IGROV1 ovarian
SK-OV-3 ovarian = test system: SK-OV-3 ovarian
MOLT-4 leukemia = test system: MOLT-4 leukemia
T-47D breast = test system: T-47D breast
NCI/ADR-RES ovarian = test system: NCI/ADR-RES ovarian
NCI-H522 lung = test system: NCI-H522 lung
SNB-19 CNS = test system: SNB-19 CNS
UO-31 renal = test system: UO-31 renal
HT29 colon = test system: HT29 colon
SN12C renal = test system: SN12C renal
SF-295 CNS = test system: SF-295 CNS
SK-MEL-2 melanoma = test system: SK-MEL-2 melanoma

Q: For Cc1ccc2c(C3C(C#N)=C(N)Oc4cc5ccccc5cc43)cc(=O)oc2c1 (configuration not stated), which GI50 (A498 renal) is on record?
A: 4.23 µM

Q: And the TGI (A498 renal)?
A: 86.3 µM

Q: And the GI50 (SR leukemia)?
A: 0.525 µM

Q: And the TGI (SR leukemia)?
A: > 100 µM

Q: And the GI50 (EKVX NSCLC)?
A: 4.44 µM

Q: And the TGI (EKVX NSCLC)?
A: > 100 µM

Q: What about the GI50 (LOX IMVI melanoma) of the same molecule?
A: 3.17 µM

Q: And the TGI (LOX IMVI melanoma)?
A: > 100 µM

Q: And the GI50 (HL-60(TB) leukemia)?
A: 0.424 µM

Q: And the TGI (HL-60(TB) leukemia)?
A: 17 µM

Q: And the GI50 (RXF 393 renal)?
A: 0.671 µM

Q: What about the TGI (RXF 393 renal) of the same molecule?
A: 6.11 µM

Q: What about the GI50 (RPMI-8226 leukemia) of the same molecule?
A: 3.23 µM

Q: And the TGI (RPMI-8226 leukemia)?
A: 30.2 µM

Q: What about the GI50 (A549 NSCLC) of the same molecule?
A: 2.95 µM

Q: And the TGI (A549 NSCLC)?
A: > 100 µM

Q: What about the GI50 (UACC-257 melanoma) of the same molecule?
A: 24.5 µM

Q: What about the TGI (UACC-257 melanoma) of the same molecule?
A: > 100 µM

Q: What about the GI50 (ACHN renal) of the same molecule?
A: 4.54 µM

Q: And the TGI (ACHN renal)?
A: > 100 µM

Q: And the GI50 (MCF7 breast)?
A: 0.428 µM

Q: And the TGI (MCF7 breast)?
A: > 100 µM

Q: What about the GI50 (NCI-H23 lung) of the same molecule?
A: 6.06 µM

Q: And the TGI (NCI-H23 lung)?
A: > 100 µM

Q: And the GI50 (KM12 colon)?
A: 0.724 µM

Q: What about the TGI (KM12 colon) of the same molecule?
A: > 100 µM

Q: What about the GI50 (HCC-2998 colon) of the same molecule?
A: 3.91 µM

Q: What about the TGI (HCC-2998 colon) of the same molecule?
A: 58.6 µM

Q: And the GI50 (SF-539 CNS)?
A: 0.873 µM

Q: What about the TGI (SF-539 CNS) of the same molecule?
A: 7.6 µM

Q: And the GI50 (K-562 leukemia)?
A: 0.394 µM

Q: And the TGI (K-562 leukemia)?
A: > 100 µM

Q: What about the GI50 (MDA-MB-231 breast) of the same molecule?
A: 8.2 µM

Q: And the TGI (MDA-MB-231 breast)?
A: > 100 µM

Q: And the GI50 (HOP-62 NSCLC)?
A: 1.22 µM

Q: What about the TGI (HOP-62 NSCLC) of the same molecule?
A: > 100 µM

Q: What about the GI50 (U251 CNS) of the same molecule?
A: 2.28 µM

Q: And the TGI (U251 CNS)?
A: > 100 µM

Q: And the GI50 (SNB-75 CNS)?
A: 6.89 µM

Q: What about the TGI (SNB-75 CNS) of the same molecule?
A: > 100 µM

Q: And the GI50 (786-0 renal)?
A: 1.83 µM

Q: And the TGI (786-0 renal)?
A: > 100 µM

Q: And the GI50 (CCRF-CEM leukemia)?
A: 0.976 µM

Q: And the TGI (CCRF-CEM leukemia)?
A: > 100 µM

Q: What about the GI50 (DU-145 prostate) of the same molecule?
A: 3.79 µM

Q: And the TGI (DU-145 prostate)?
A: > 100 µM

Q: And the GI50 (OVCAR-3 ovarian)?
A: 0.375 µM

Q: And the TGI (OVCAR-3 ovarian)?
A: 10.7 µM

Q: What about the GI50 (PC-3 prostate) of the same molecule?
A: 1.25 µM

Q: And the TGI (PC-3 prostate)?
A: > 100 µM

Q: What about the GI50 (OVCAR-8 ovarian) of the same molecule?
A: 4.47 µM

Q: What about the TGI (OVCAR-8 ovarian) of the same molecule?
A: > 100 µM

Q: And the GI50 (HS 578T breast)?
A: 3.29 µM

Q: And the TGI (HS 578T breast)?
A: > 100 µM

Q: What about the GI50 (SF-268 CNS) of the same molecule?
A: 3.07 µM

Q: What about the TGI (SF-268 CNS) of the same molecule?
A: > 100 µM

Q: What about the GI50 (NCI-H460 lung) of the same molecule?
A: 0.883 µM

Q: What about the TGI (NCI-H460 lung) of the same molecule?
A: 15.5 µM

Q: And the GI50 (HCT-116 colon)?
A: 0.531 µM

Q: What about the TGI (HCT-116 colon) of the same molecule?
A: 32.8 µM

Q: And the GI50 (HCT-15 colon)?
A: 0.64 µM

Q: What about the TGI (HCT-15 colon) of the same molecule?
A: > 100 µM

Q: And the GI50 (BT-549 breast)?
A: 3.67 µM

Q: And the TGI (BT-549 breast)?
A: 64.3 µM

Q: What about the GI50 (OVCAR-4 ovarian) of the same molecule?
A: 11.4 µM

Q: What about the TGI (OVCAR-4 ovarian) of the same molecule?
A: > 100 µM

Q: And the GI50 (HOP-92 NSCLC)?
A: 19.7 µM

Q: And the TGI (HOP-92 NSCLC)?
A: 84 µM

Q: What about the GI50 (COLO 205 colon) of the same molecule?
A: 2.88 µM

Q: And the TGI (COLO 205 colon)?
A: 17.3 µM

Q: What about the GI50 (SK-MEL-5 melanoma) of the same molecule?
A: 0.856 µM

Q: What about the TGI (SK-MEL-5 melanoma) of the same molecule?
A: 19.9 µM

Q: And the GI50 (SW-620 colon)?
A: 0.736 µM

Q: What about the TGI (SW-620 colon) of the same molecule?
A: > 100 µM

Q: And the GI50 (MDA-MB-435)?
A: 0.286 µM

Q: What about the TGI (MDA-MB-435) of the same molecule?
A: 1.07 µM

Q: What about the GI50 (M14 melanoma) of the same molecule?
A: 0.697 µM

Q: And the TGI (M14 melanoma)?
A: 21.3 µM

Q: What about the GI50 (SK-MEL-28 melanoma) of the same molecule?
A: 12.3 µM

Q: What about the TGI (SK-MEL-28 melanoma) of the same molecule?
A: > 100 µM

Q: What about the GI50 (TK-10 renal) of the same molecule?
A: 17.6 µM

Q: What about the TGI (TK-10 renal) of the same molecule?
A: > 100 µM

Q: What about the GI50 (UACC-62 melanoma) of the same molecule?
A: 0.704 µM

Q: And the TGI (UACC-62 melanoma)?
A: > 100 µM

Q: And the GI50 (NCI-H226 lung)?
A: 62.1 µM

Q: What about the TGI (NCI-H226 lung) of the same molecule?
A: > 100 µM

Q: And the GI50 (OVCAR-5 ovarian)?
A: 3.76 µM

Q: What about the TGI (OVCAR-5 ovarian) of the same molecule?
A: > 100 µM

Q: And the GI50 (IGROV1 ovarian)?
A: 0.983 µM

Q: What about the TGI (IGROV1 ovarian) of the same molecule?
A: > 100 µM

Q: And the GI50 (SK-OV-3 ovarian)?
A: 2.04 µM

Q: What about the TGI (SK-OV-3 ovarian) of the same molecule?
A: > 100 µM

Q: What about the GI50 (MOLT-4 leukemia) of the same molecule?
A: 2.05 µM

Q: What about the TGI (MOLT-4 leukemia) of the same molecule?
A: > 100 µM

Q: And the GI50 (T-47D breast)?
A: 1.49 µM

Q: What about the TGI (T-47D breast) of the same molecule?
A: 64 µM

Q: What about the GI50 (NCI/ADR-RES ovarian) of the same molecule?
A: 0.833 µM

Q: And the TGI (NCI/ADR-RES ovarian)?
A: > 100 µM

Q: What about the GI50 (NCI-H522 lung) of the same molecule?
A: 0.446 µM

Q: And the TGI (NCI-H522 lung)?
A: 11.6 µM

Q: And the GI50 (SNB-19 CNS)?
A: 1.79 µM

Q: And the TGI (SNB-19 CNS)?
A: > 100 µM

Q: And the GI50 (UO-31 renal)?
A: 7.68 µM

Q: And the TGI (UO-31 renal)?
A: > 100 µM

Q: And the GI50 (HT29 colon)?
A: 3 µM

Q: And the TGI (HT29 colon)?
A: 13.1 µM

Q: And the GI50 (SN12C renal)?
A: 5.27 µM

Q: What about the TGI (SN12C renal) of the same molecule?
A: > 100 µM

Q: And the GI50 (SF-295 CNS)?
A: 0.533 µM

Q: And the TGI (SF-295 CNS)?
A: > 100 µM

Q: What about the GI50 (SK-MEL-2 melanoma) of the same molecule?
A: 11.7 µM

Q: What about the TGI (SK-MEL-2 melanoma) of the same molecule?
A: > 100 µM
